# Measurements reported in patent publication US20250197437A1, “CANNABINOID COMPLEXES WITH IMPROVED PROPERTIES” (KEMIJSKI INŠTITUT, priority 2022, published 2025).
# Like-named read-outs stand apart in the source and are kept apart here.
# Assay: Water solubility test of cannabinoid:glucosamine complexes and pure cannabinoids (HPLC of supernatant)
# Assay type: physicochemical
# Conditions: thermodynamic from solid
# Experimental: If considered necessary, sonication can also be applied. Afterwards, the solution is centrifuged at 3.000 g for 3 minutes and the supernatant is transferred to a HPLC vial. Concentration of dissolved cannabinoids is determined by analysis on an Agilent 1260 Infinity (Santa Clara, CA, USA) HPLC system. The chromatographic method is adapted from the literature (Križman, 2019). In short, the separation is performed on a Phenomenex (Torrance, CA, USA) Luna C18 (2) (octadecyl silica) chromatographic column, with dimensions 150 mm×3 mm i.d., 3 μm particle size, and temperature set at 37° C. Mobile phase is isocratic consisting of water/acetonitrile with a ratio of 9:31 (v/v), with 0.1% formic acid (v/v) and 10 mM ammonium formate, at a flow rate of 0.8 mL/min and injection volume 5 μL. The UV detection wavelength is 275 nm. The concentration of cannabinoids is determined using an external standard method.
# For water solubility studies, 1-1.5 mg of the prepared complex was mixed with 1 mL of distilled water and stirred for 5-10 min, if necessary also sonication was applied. Afterwards the solution was centrifuged at 3.000 g for 3 minutes and the supernatant was transferred to the vials. Concentration of dissolved cannabinoids was determined by HPLC-DAD system (Agilent 1260 Infinity, Santa Clara, CA, USA).
# [1] = 1-1.5 mg sample in 1 mL distilled water, stirred 5-10 min, centrifuged, HPLC, printed as greater-than/less-than bounds, read-out: Water solubility of cannabinoid
solubility (water) [µg/mL],SMILES,solubility [1] [µg/mL]
,"C=C(C)[C@@H]1CCC(C)=C[C@H]1c1c(O)cc(CCCCC)cc1O [CBD, cannabidiol]",< 1
,"C=C(C)[C@@H]1CCC(C)=C[C@H]1c1c(O)cc(CCCCC)c(C(=O)O)c1O [CBDA, cannabidiolic acid]",< 2
< 1,"CCCCCc1cc(O)c(C/C=C(\C)CCC=C(C)C)c(O)c1 [CBG, cannabigerol]",
